Test results reported in article PMC10974290, “Biocatalytic Synthesis of Coumarin S-Glycosides: Towards Non-Cytotoxic Probes for Biomedical Imaging and Sensing” (Molecules, 2024).

Experiments:
[1] = Fluorescence excitation/emission spectroscopy and relative quantum yield; assay type: physicochemical; conditions: 7-MC in presence of 10 mM DTT; for Fluorescence λmax ex: emission at 420 nm; for Fluorescence λmax em: excitation at 280 nm; for Relative quantum yield Φ: relative to 4-MUB in DMF
Description: The values determined were close to those observed for the 4-MUB fluorophore.
Both absorbance and fluorescence spectra were measured on a Tecan […] M PLEX 200 Pro plate reader equipped with monochromator allowing a scan from 230 to 1000 nm. […] The solutions were then transferred to a Corning (Corning, NY, USA) UV-transparent 96-well plate. Absorbance spectra were recorded from 230 to 800 nm. Emission fluorescence spectra were recorded from 320 to 800 nm, under excitation at 280 nm. Excitation fluorescence spectra were recorded from 230 to 380 nm for an emission at 420 nm. All spectra were recorded with a wavelength step size of 2 nm. Data processing was performed with Excel software 2016. Fluorescence spectra are presented as normalized spectra ranging from 0 to 1. The relative quantum yields were calculated according to Equation (1):(1) ΦT=(AR/AT)×(FT/FR)×(nT/nR)×ΦR where Φ is the fluorescence quantum yield, A is the absorbance at the excitation wavelength, F is the area under the corrected emission curve, and n is the refractive index of the solvent for the test compound (T) and the reference (R). The 4-MUB value in DMF was used as the reference. The LOD (resp. LOQ) values were determined as the minimal concentration of product S-3 required to yield a fluorescence that was twice greater than (respectively, 5-times that of) the fluorescence noise on a sample containing PBS, using an excitation wavelength of 280 nm and an emission wavelength of 386 nm (Figure S44).

[2] = UV-visible absorbance spectroscopy; assay type: physicochemical; conditions: 0.1 mM; for emax (molar absorption coefficient): 7-MC + DTT 10 mM; for Absorbance ε (molar absorption coefficient) / Absorbance λmax abs: 7-MC in presence of 10 mM DTT
Description: Subsequently, the analysis was carried out under two distinct conditions: firstly, in DMF, at a final concentration of 0.1 mM; and secondly, in a mixture PBS:DMF (99:1%), at the same final concentration of 0.1 mM. These two experimental setups provided valuable insights into the spectral characteristics of the compounds in both a pure organic solvent and a solvent system closely resembling physiological conditions. The maxima absorption wavelengths are compiled in Table 3. These bands were attributed to transitions within the benzene and pyrone moieties, considered together as a single chromophore. […] Similarly, 7-MC and S-1 to S-6 compounds also absorb in this UV range (λmax = 328–330 nm). […] In the organic solvent, these values are found to be higher compared to those calculated for 4-MUB and 7-MC. Conversely, in PBS, the extinction coefficients for S-glycosides are lower compared to the parent thiol 7-MC. This highlights the profound impact of glycosylation on absorption properties, as well as the importance of solvent choice.
Both absorbance and fluorescence spectra were measured on a Tecan […] M PLEX 200 Pro plate reader equipped with monochromator allowing a scan from 230 to 1000 nm. All synthesized molecules were initially dissolved in 10 mM DMF and subsequently diluted in freshly prepared PBS (pH = 7.4) to achieve a final concentration of 0.1 mM. The solutions were then transferred to a Corning (Corning, NY, USA) UV-transparent 96-well plate. Absorbance spectra were recorded from 230 to 800 nm. Emission fluorescence spectra were recorded from 320 to 800 nm, under excitation at 280 nm. Excitation fluorescence spectra were recorded from 230 to 380 nm for an emission at 420 nm. All spectra were recorded with a wavelength step size of 2 nm. Data processing was performed with Excel software 2016. Fluorescence spectra are presented as normalized spectra ranging from 0 to 1. The relative quantum yields were calculated according to Equation (1):(1) ΦT=(AR/AT)×(FT/FR)×[…]×ΦR where Φ is the fluorescence quantum yield, A is the absorbance at the excitation wavelength, F is the area under the corrected emission curve, and n is the refractive index of the solvent for the test compound (T) and the reference (R). The 4-MUB value in DMF was used as the reference. The LOD (resp. LOQ) values were determined as the minimal concentration of product S-3 required to yield a fluorescence that was twice greater than (respectively, 5-times that of) the fluorescence noise on a sample containing PBS, using an excitation wavelength of 280 nm and an emission wavelength of 386 nm (Figure S44).

Structure (SMILES) | Fluorescence λmax ex ([1]; DMF, 0.1 mM) [nm] | Fluorescence λmax em ([1]; DMF, 0.1 mM) [nm] | Relative quantum yield Φ ([1]; DMF) | Fluorescence λmax ex ([1]; PBS pH 7.4, 0.1 mM) [nm] | Fluorescence λmax em ([1]; PBS pH 7.4, 0.1 mM) [nm] | Relative quantum yield Φ ([1]; PBS) | emax (molar absorption coefficient) ([2]; DMF) | Absorbance ε (molar absorption coefficient) ([2]; DMF) | Absorbance λmax abs ([2]; DMF) [nm] | emax (molar absorption coefficient) ([2]; PBS 1x (pH = 7.4)) | Absorbance ε (molar absorption coefficient) ([2]; PBS (PBS:DMF 99:1, pH 7.4)) | Absorbance λmax abs ([2]; PBS (PBS:DMF 99:1, pH 7.4)) [nm]
Cc1cc(=O)oc2cc(S[C@@H]3O[C@H](C(=O)O)[C@@H](O)[C@H](O)[C@H]3O)ccc12 [Compound S-1, 4-Methylumbellifer-7-yl 1-thio-β-D-glucopyranosiduronic acid] | 332 | 390 | 0.182 | 332 | 402 | 0.235 | 26660,51579 cm-1 M-1 | 26.7 10^3 M^−1 cm^−1 | 330 | 23328,41338 cm-1 M-1 | 23.3 10^3 M^−1 cm^−1 | 326
Cc1cc(=O)oc2cc(S[C@@H]3OC[C@@H](O)[C@H](O)[C@H]3O)ccc12 [Compound S-2, 4-Methylumbellifer-7-yl 1-thio-β-D-xylopyranoside] | 332 | 386 | 0.186 | 326 | 402 | 0.181 |  | 19.5 10^3 M^−1 cm^−1 | 330 | 26044,28033 cm-1 M-1 | 26.0 10^3 M^−1 cm^−1 | 324
Cc1cc(=O)oc2cc(S[C@@H]3O[C@H](CO)[C@H](O)[C@H](O)[C@H]3O)ccc12 [Compound S-4, 4-Methylumbellifer-7-yl 1-thio-β-D-galactopyranoside] | 334 | 388 | 0.223 | 332 | 402 | 0.271 | 22265,68277 cm-1 M-1 | 22.3 10^3 M^−1 cm^−1 | 330 | 18357,93367 cm-1 M-1 | 18.4 10^3 M^−1 cm^−1 | 326
Cc1cc(=O)oc2cc(S[C@@H]3O[C@H](C)[C@H](O)[C@H](O)[C@H]3O)ccc12 [Compound S-5, 4-Methylumbellifer-7-yl 1-thio-β-D-fucopyranoside] | 334 | 386 | 0.183 | 326 | 402 | 0.228 | 22294,93104 cm-1 M-1 | 22.3 10^3 M^−1 cm^−1 | 330 |  | 10.4 10^3 M^−1 cm^−1 | 326

Continued, values first:

Fluorescence λmax ex ([1]; DMF, 0.1 mM) [nm] | Fluorescence λmax em ([1]; DMF, 0.1 mM) [nm] | Relative quantum yield Φ ([1]; DMF) | Fluorescence λmax ex ([1]; PBS pH 7.4, 0.1 mM) [nm] | Fluorescence λmax em ([1]; PBS pH 7.4, 0.1 mM) [nm] | Relative quantum yield Φ ([1]; PBS) | emax (molar absorption coefficient) ([2]; DMF) | Absorbance ε (molar absorption coefficient) ([2]; DMF) | Absorbance λmax abs ([2]; DMF) [nm] | emax (molar absorption coefficient) ([2]; PBS 1x (pH = 7.4)) | Absorbance ε (molar absorption coefficient) ([2]; PBS (PBS:DMF 99:1, pH 7.4)) | Absorbance λmax abs ([2]; PBS (PBS:DMF 99:1, pH 7.4)) [nm] | Structure (SMILES)
334 | 392 | 0.009 | 321 | 448 | 0.020 | 10409,59 cm-1 M-1 | 10.4 10^3 M^−1 cm^−1 | 328 | 28929,88854 cm-1 M-1 | 28.9 10^3 M^−1 cm^−1 | 368 | Cc1cc(=O)oc2cc(S)ccc12 [Compound 7-MC, 7-mercapto-4-methylcoumarin, reference compound]
332 | 386 | 0.198 | 332 | 402 | 0.242 | 18634,68658 cm-1 M-1 | 18.6 10^3 M^−1 cm^−1 | 330 | 20778,59706 cm-1 M-1 | 20.8 10^3 M^−1 cm^−1 | 326 | Cc1cc(=O)oc2cc(S[C@@H]3O[C@H](CO)[C@@H](O)[C@H](O)[C@H]3O)ccc12 [Compound S-3, 4-Methylumbellifer-7-yl 1-thio-β-D-glucopyranoside]
334 | 388 | 0.223 | 332 | 416 | 0.185 | 22265,68277 cm-1 M-1 | 22.3 10^3 M^−1 cm^−1 | 330 | 19811,80752 cm-1 M-1 | 19.8 10^3 M^−1 cm^−1 | 326 | Cc1cc(=O)oc2cc(S[C@H]3O[C@H](CO)[C@H](O)[C@H](O)[C@H]3O)ccc12 [Compound S-6, 4-Methylumbellifer-7-yl 1-thio-α-D-galactopyranoside]
